Columns and labels:
[1] = target: T1, recombinant USP1/UAF1 enzyme complex (Homo sapiens, UniProt O94782); assay: Enzyme assay: deubiquitinase fluorometric assay with ubiquitin-Rhodamine substrate; format: biochemical; conditions: USP1/UAF1, Ub-Rho110 substrate, 2 hours preincubation, 1 hour reaction
T1 construct: purchased Biortus
Protocol: Enzymatic inhibitory potency of the compounds was assessed in a deubiquitinase fluorometric assay using ubiquitin-Rhodamine (Ub-Rho110, R&D Systems) as substrate and the recombinant USP1/UAF1 enzyme complex (Biortus). Assays were performed in a final volume of 12 μL using black 384-well plates (Corning #4514) containing 50 mM HEPES (pH 7.5, BioRoYee), 0.5 mM EDTA, 1 mM dithiothreitol, 0.1 mg/mL bovine serum albumin, 50 nM Ub-Rhol10, 0.004 nM USP1/UAF1, and series diluted compounds from 10 μM to 0.5 nM (10 dilution steps). Assay-ready plates containing 40 nL of Echo-dispensed compound in DMSO were reconstituted with 2 μL of ddH2O, then 5 μL of USP1/UAF1 enzyme mixture was added and preincubated at room temperature for 2 hours. Enzymatic reaction was initiated by the addition of […] substrate mixture and assay allowed to proceed for 1 hour at room temperature before quenching with 3 μL of 150 mM citric acid. Fluorescence signal was detected via TECAN SPARK with excitation at 485 nm and emission at 535 nm. Data analysis was done using GraphPad Prism8 and IC50 values were obtained by 4-parameter logistic curve fitting.
(§1) Certain compounds were tested in the assays.

MDA-MB-436 cells = assay: CTG Protocol (MDA-MB-436 GI50), antiproliferative activity; format: cell-based, human; conditions: Homo sapiens, 168 h; MDA-MB-436 cells (BRCA1 mutation), 7-day incubation, CellTiter-Glo
Protocol: CTG Protocol (MDA-MB-436 GI50)
Antiproliferative activity of USP1 inhibitors was determined using breast cancer cell line MDA-MB-436 that harbors BRCA1 mutation. MDA-MB-436 cells (ATCC, HTB-130) was seeded with a seeding density of 1000 cells per well and 95 μL DMEM medium (Gibco, 10566016) into 96-well cell plates (Corning, 3610), and incubated overnight at 37° C. and 5% CO2. Compounds were solubilized in DMSO (Solarbio, D8371) as 10 mM stock solution, and then series diluted (3 folds) with DMSO for 9-point dose-response testing. The resulted series dilutions were then jump-diluted 50-fold by cell culture medium to afford the 20×stock solutions (containing 2% DMSO). Treatment was initiated by adding 5 μL of 20×stock solution to the assay plate and incubated at 37° C. and 5% CO2. At the end of 7-day incubation, cell assay plates were removed from incubation and equilibrated to room temperature (20 min). Then 100 μL of CellTiter-Glo (Promega, G9243) reagent, prepared per manufacturer's protocol, was added to each well, and the resulted plates were centrifuged 1,000 rpm for 1 minute, incubated at room temperature in the dark for 20 minutes, sealed with Perkin Elmer sticky film, and the luminescence signal read by Envision (Perkin Elmer).
Data analysis • a) % Inhibition was calculated using following equation: […]
X: compound concentration; Y: % Inhibition
as §1

[2] = Solubility in FaSSIF (Fasted State Simulated Intestinal Fluid); format: physicochemical; conditions: kinetic from dmso stock, FaSSIF pH 6.5, 25° C.
Protocol: Solubility in FaSSIF (Fasted State Simulated Intestinal Fluid)
Certain Compounds of the Disclosure were assessed for the apparent solubility in FaSSIF.
0.420 g of NaOH, 3.438 g of NaH2PO4 and 6.186 g of NaCl were dissolved into about 900 mL ultrapure water. The solution was adjusted to the pH of 6.5 with 1N NaOH or 1N HCl. The solution was then diluted with ultrapure water to 1000 mL at room temperature. The resulting solution is used as buffer solution.
2.240 g of FaSSIF Powder was added to about 500 mL of above-mentioned buffer solution. The solution was stirred until powder was completely dissolved. Then the solution was diluted with buffer A to 1000 mL at room temperature. This solution is FaSSIF to be used in the following experiment.
15 μL of stock solution (10 mM) of each sample was placed into their proper 96-well rack. 485 μL of FaSSIF was added into each vial of the cap-less solubility sample plate. One stir stick was added to each vial and the vial was sealed using a molded PTFE/Silicone plug. The solubility sample plate was transferred to the Eppendorf Thermomixer Comfort plate shaker and shaked at 25° C. at 1100 RPM for 2 hours. After completion of the 2 hours, the stir sticks using a big magnet were removed. The samples from the solubility sample plate were transferred into the filter plate. Using the vacuum manifold, all the samples are filtered. Aliquot of 5 μL was taken from filtrate followed by addition of 5 μL DMSO and 490 μL of a mixture of H2O and acetonitrile containing internal standard (1:1).
3 μM Standards solution (STD) was prepared from the 10 mM DMSO STD plate.as following: transferring 6 μL into the remaining empty plate, adding 194 μL of DMSO to that plate to have a STD concentration of 300 μM. From the 300 μM DMSO STD plate, 5 μL solution was transferred into the remaining empty plate. Addition of 5 μL PBS and 490 μL of a mixture of H2O and acetonitrile containing internal standard (1:1) to that plate furnished a final STD concentration of 3 μM STD solution.
The samples are analyzed and quantified against the standard of known concentration using LC/MS/MS, calculating the solubility of the test compound as following (DF means the dilution factor):
[Sample solubility in FsSSIF (04)]=Area Ratio sample×DF sample×[STD]/Area Ratio STD

[3] = Liver microsomal stability (HLM); format: in vitro ADME; conditions: human, liver microsomes, human liver microsomes 0.5 mg/mL, 1 μM compound, NADPH
Protocol: Liver Microsomal Stability
Certain Compounds of the Disclosure were assessed for ADME metabolic stability in human liver microsomes (HLM).
Samples were prepared by adding 222.5 μL of a master solution (100 mM phosphate buffer and 0.5 mg/mL liver microsomes (HLM)) and 25 μL of a 10 mM NADPH solution to incubation plates, which were then warmed for 10 min. Each compound was separately dissolved in DMSO to prepare 10 mM stock solutions, which were then diluted to 100 μM with acetonitrile. A reaction was started by adding 2.5 μL of the […] solution of each compound to separate incubation plates such that the final concentration of for each compound in each plate was 1 μM. Aliquots of 30 μL were taken from the reaction solution at 0.5, 5, 15, 30 and 60 minutes. The reaction was stopped by the addition of 5 volumes of cold acetonitrile with IS (100 nM alprazolam, 200 nM caffeine and 100 nM tolbutamide). Aliquot of 100 μL of the supernatant was diluted by 100 μL ultra-pure water, and the mixture was used for LC/MS/MS analysis. Peak areas were determined from extracted ion chromatograms. […]. The percentage of remaining parent was calculated from peak area of test compound or PC. The slope value, k, is determined by linear regression of the natural logarithm of percent parent remaining vs. incubation time curve. All calculations are carried out using Microsoft Excel.
The in vitro half-life (in vitro t1/2) is determined from the slope value:
Conversion of the in vitro t1/2 (in min) into the in vitro intrinsic clearance (in vitro CLint, (HLM Clint (μL/min/mg proteins))) is done using the following equation: […]
A: HLM Clint <10 μL/min/mg; B: 10 μL/min/mg≤HLM Clint <50 μL/min/mg; C: HLM Clint ≥50 μL/min/mg.

T1 sequence (O94782 whole entry): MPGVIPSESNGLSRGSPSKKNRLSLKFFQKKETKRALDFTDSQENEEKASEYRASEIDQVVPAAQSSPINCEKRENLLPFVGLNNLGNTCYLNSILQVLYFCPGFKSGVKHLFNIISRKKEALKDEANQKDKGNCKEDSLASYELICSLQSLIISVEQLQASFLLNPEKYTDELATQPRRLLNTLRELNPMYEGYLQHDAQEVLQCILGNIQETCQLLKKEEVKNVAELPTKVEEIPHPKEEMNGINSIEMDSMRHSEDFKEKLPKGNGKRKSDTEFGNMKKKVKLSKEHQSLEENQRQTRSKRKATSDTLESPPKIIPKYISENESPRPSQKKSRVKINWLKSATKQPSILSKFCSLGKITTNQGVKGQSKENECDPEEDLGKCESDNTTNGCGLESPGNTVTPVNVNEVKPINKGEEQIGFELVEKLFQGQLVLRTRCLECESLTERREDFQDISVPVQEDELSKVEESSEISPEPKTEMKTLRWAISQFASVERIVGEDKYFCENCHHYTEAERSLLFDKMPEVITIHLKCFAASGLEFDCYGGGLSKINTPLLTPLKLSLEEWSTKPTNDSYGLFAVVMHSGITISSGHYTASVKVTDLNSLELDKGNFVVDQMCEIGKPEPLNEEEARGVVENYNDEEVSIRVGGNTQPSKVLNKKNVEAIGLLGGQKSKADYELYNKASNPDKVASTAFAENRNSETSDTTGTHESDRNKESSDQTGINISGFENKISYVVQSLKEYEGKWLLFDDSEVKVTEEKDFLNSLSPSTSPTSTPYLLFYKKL
T1 sequence (Q8TAF3 whole entry partner): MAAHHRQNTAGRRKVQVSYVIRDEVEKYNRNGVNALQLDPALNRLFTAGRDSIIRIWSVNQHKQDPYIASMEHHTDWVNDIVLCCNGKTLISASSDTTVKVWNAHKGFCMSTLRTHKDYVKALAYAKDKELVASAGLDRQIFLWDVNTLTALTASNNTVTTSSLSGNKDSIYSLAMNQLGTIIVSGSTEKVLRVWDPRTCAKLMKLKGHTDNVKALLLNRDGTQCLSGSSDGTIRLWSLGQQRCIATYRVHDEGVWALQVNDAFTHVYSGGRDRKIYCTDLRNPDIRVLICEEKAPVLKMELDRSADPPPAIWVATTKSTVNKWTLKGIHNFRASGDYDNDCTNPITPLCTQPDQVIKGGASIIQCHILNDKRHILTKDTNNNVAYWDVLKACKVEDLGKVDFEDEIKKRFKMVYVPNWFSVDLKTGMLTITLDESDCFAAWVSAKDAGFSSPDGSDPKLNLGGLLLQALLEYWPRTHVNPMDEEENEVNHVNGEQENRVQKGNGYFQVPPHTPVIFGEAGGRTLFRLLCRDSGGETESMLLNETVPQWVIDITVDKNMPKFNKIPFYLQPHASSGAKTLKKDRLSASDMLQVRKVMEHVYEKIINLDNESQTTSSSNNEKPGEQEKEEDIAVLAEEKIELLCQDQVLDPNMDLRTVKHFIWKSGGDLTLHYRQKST

IC50 [1]	GI50 (MDA-MB-436 cells)	solubility at 2 h [2]	microsomal CLint at 1 μM [3]	SMILES
–	–	≥ 100 µM	10 to 50 µL/min/mg	COc1ncnc(C2CC2)c1-c1ncc2cc(-c3cnn(C4CCN(C)CC4)c3)c(=O)n(Cc3ccc(-c4nc(C(F)(F)F)cn4C4CC4)cc3)c2n1 [Compound I-143]
–	–	< 10 µM	10 to 50 µL/min/mg	COc1ncnc(C2CC2)c1-c1ncc2cc(-c3cn(C)c(C)n3)c(=O)n(Cc3ccc(-c4nc(C(F)(F)F)cn4C4CC4)cc3)c2n1 [Compound I-144]
–	–	≥ 100 µM	< 10 µL/min/mg	COc1ncnc(C2CC2)c1-c1ncc2cc(-c3ncccn3)c(=O)n(Cc3ccc(-c4nc(C(F)(F)F)cn4C4CC4)cc3)c2n1 [Compound I-145]

The remaining lines, values behind:

SMILES	IC50 [1]	GI50 (MDA-MB-436 cells)	solubility at 2 h [2]	microsomal CLint at 1 μM [3]
CCn1cc(C(F)(F)F)nc1-c1ccc(Cn2c(=O)c(C(=O)N(C)C)cc3cnc(-c4c(OC)ncnc4C4CC4)nc32)cc1 [Compound I-39, 2-(4-cyclopropyl-6-methoxypyrimidin-5-yl)-8-({4-[1-ethyl-4-(trifluoromethyl)imidazo]-2-yl]phenylmethyl)-N,N-dimethyl-7-oxopyrido[2,3-d]pyrimidine-6-carb oxamide]	10 to 100 nM	10 to 100 nM	–	–
COc1ncnc(C2CC2)c1-c1ncc2cc(Br)c(=O)n(Cc3ccc(-c4nc(C(F)(F)F)cn4C)cc3)c2n1 [Compound I-40]	10 to 100 nM	10 to 100 nM	–	–
COc1ncnc(C2CC2)c1-c1ncc2cc(-c3cnn(C4CN(C)C4)c3)c(=O)n(Cc3ccc(-c4nc(C(F)(F)F)cn4C4CC4)cc3)c2n1 [Compound I-137]	–	–	≥ 100 µM	10 to 50 µL/min/mg
COc1ncnc(C2CC2)c1-c1ncc2cc(-c3cnn(C)c3)c(=O)n(Cc3ccc(-c4nc(C(F)(F)F)cn4C(C)C)cc3)c2n1 [Compound I-138]	–	–	≥ 100 µM	< 10 µL/min/mg
COc1ncnc(C2CC2)c1-c1ncc2cc(-c3cccnc3)c(=O)n(Cc3ccc(-c4nc(C(F)(F)F)cn4C4CC4)cc3)c2n1 [Compound I-139]	–	–	≥ 100 µM	< 10 µL/min/mg
COc1ncnc(C2CC2)c1-c1ncc2cc(-c3cnc(C)nc3)c(=O)n(Cc3ccc(-c4nc(C(F)(F)F)cn4C4CC4)cc3)c2n1 [Compound I-140]	–	–	≥ 100 µM	< 10 µL/min/mg
